Tested on: corn seeds
Assay: Phytotoxicity: cold test germination rate (CT) of treated corn seeds
Details: for ΔCT: vs no Bitrex
Procedure: In order to evaluate the phytotoxicity of different corn seed treatments, safety tests were conducted. Germination rates of corn seeds treated with various concentrations of denatonium benzoate (Bitrex®) [in g per unit, where 1 unit is 50.000 seeds] were counted after five days at 25° C. Cold test germination rates (CT) were counted after 7 days at 10° C. and 5 days at 25° C. The treatments were compared to untreated seeds.
KF=germination rates counted after 5 days at 25° C. and CT=cold test germination rates counted after 7 days at 10° C. and 5 days at 25° C.

[1] = corn Amavit, chemical no, Bitrex 0.2 g/u
[2] = corn Amavit, chemical no, Bitrex 0.5 g/u
[3] = corn Amavit, chemical no, Bitrex 1.0 g/u
[4] = corn Amavit, chemical no, Bitrex 2.0 g/u
[5] = corn Amavit, chemical no, Bitrex 5.0 g/u
[6] = corn Amavit, with MaximXL, Bitrex 0.2 g/u
[7] = corn Amavit, with MaximXL, Bitrex 0.5 g/u
[8] = corn Amavit, with MaximXL, Bitrex 1.0 g/u
[9] = corn Amavit, with MaximXL, Bitrex 2.0 g/u
[10] = corn Amavit, with MaximXL, Bitrex 5.0 g/u
[11] = corn Amavit, with RedigoM, Bitrex 0.2 g/u
[12] = corn Amavit, with RedigoM, Bitrex 0.5 g/u
[13] = corn Amavit, with RedigoM, Bitrex 1.0 g/u
[14] = corn Amavit, with RedigoM, Bitrex 2.0 g/u
[15] = corn Amavit, with RedigoM, Bitrex 5.0 g/u
[16] = corn KXB6432, chemical no, Bitrex 0.2 g/u
[17] = corn KXB6432, chemical no, Bitrex 0.5 g/u
[18] = corn KXB6432, chemical no, Bitrex 1.0 g/u
[19] = corn KXB6432, chemical no, Bitrex 2.0 g/u
[20] = corn KXB6432, chemical no, Bitrex 5.0 g/u
[21] = corn KXB6432, with MaximXL, Bitrex 0.2 g/u
[22] = corn KXB6432, with MaximXL, Bitrex 0.5 g/u
[23] = corn KXB6432, with MaximXL, Bitrex 1.0 g/u
[24] = corn KXB6432, with MaximXL, Bitrex 2.0 g/u
[25] = corn KXB6432, with MaximXL, Bitrex 5.0 g/u
[26] = corn KXB6432, with RedigoM, Bitrex 0.2 g/u
[27] = corn KXB6432, with RedigoM, Bitrex 0.5 g/u
[28] = corn KXB6432, with RedigoM, Bitrex 1.0 g/u
[29] = corn KXB6432, with RedigoM, Bitrex 2.0 g/u
[30] = corn KXB6432, with RedigoM, Bitrex 5.0 g/u

With CC[N+](CC)(CC(=O)Nc1c(C)cccc1C)Cc1ccccc1.O=C([O-])c1ccccc1 [Bitrex, N-Benzyl-2-(2,6-dimethylanilino)-N, N-diethyl-2-oxoethan-1-aminium benzoate] the “CT cold test germination rate, 7 days at 10° C. and 5 days at 25° C.” value (from here on “CT cold test germination rate, 7 days”) [1] was 91.5%, the “CT cold test germination rate, 7 days” value [2] was 89.0% and the “CT cold test germination rate, 7 days” value [3] was 95.5%. For the same molecule, the “CT cold test germination rate, 7 days” value [4] was 93.0%, the “CT cold test germination rate, 7 days” value [5] was 96.5% and the “CT cold test germination rate, 7 days” value [6] was 98.0%. For the same molecule, the “CT cold test germination rate, 7 days” value [7] was 98.0%, the “CT cold test germination rate, 7 days” value [8] was 97.0% and the “CT cold test germination rate, 7 days” value [9] was 99.0%. The “CT cold test germination rate, 7 days” value [10] was 99.0%, the “CT cold test germination rate, 7 days” value [11] was 97.5% and the “CT cold test germination rate, 7 days” value [12] was 99.0%. The “CT cold test germination rate, 7 days” value [13] was 99.0%, the “CT cold test germination rate, 7 days” value [14] was 95.5% and the “CT cold test germination rate, 7 days” value [15] was 96.5%. For the same molecule, the “CT cold test germination rate, 7 days” value [16] was 98.0%, the “CT cold test germination rate, 7 days” value [17] was 97.5% and the “CT cold test germination rate, 7 days” value [18] was 97.0%. For the same molecule, the “CT cold test germination rate, 7 days” value [19] was 90.5%, the “CT cold test germination rate, 7 days” value [20] was 90.5% and the “CT cold test germination rate, 7 days” value [21] was 100.0%. The “CT cold test germination rate, 7 days” value [22] was 99.5%, the “CT cold test germination rate, 7 days” value [23] was 98.0% and the “CT cold test germination rate, 7 days” value [24] was 96.5%. For the same molecule, the “CT cold test germination rate, 7 days” value [25] was 99.0%, the “CT cold test germination rate, 7 days” value [26] was 97.0% and the “CT cold test germination rate, 7 days” value [27] was 96.5%. The “CT cold test germination rate, 7 days” value [28] was 99.5%, the “CT cold test germination rate, 7 days” value [29] was 98.5% and the “CT cold test germination rate, 7 days” value [30] was 96.5%. The ΔCT [1] was 6.0%, the ΔCT [2] was 3.5% and the ΔCT [3] was 10.0%. For the same molecule, the ΔCT [4] was 7.5%, the ΔCT [5] was 11.0% and the ΔCT [6] was −2.0%. It also gave a ΔCT [7] of −2.0%, a ΔCT [8] of −3.0% and a ΔCT [9] of −1.0%. The ΔCT [10] was −1.0%, the ΔCT [11] was 0.5% and the ΔCT [12] was 2.0%. It also gave a ΔCT [13] of 2.0%, a ΔCT [14] of −1.5% and a ΔCT [15] of −0.5%. The ΔCT [16] was 5.5%, the ΔCT [17] was 5.0% and the ΔCT [18] was 4.5%. The ΔCT [19] was −2.0%, the ΔCT [20] was −2.0% and the ΔCT [21] was 1.0%. It also gave a ΔCT [22] of 0.5%, a ΔCT [23] of −1.0% and a ΔCT [24] of −2.5%. The ΔCT [25] was 0.0%, the ΔCT [26] was −0.5% and the ΔCT [27] was −1.0%. The ΔCT [28] was 2.0%, the ΔCT [29] was 1.0% and the ΔCT [30] was −1.0%. It also gave a ΔCT (ø of varieties and chemicals, Bitrex 0.2 g/u) of 1.8%, a ΔCT (ø of varieties and chemicals, Bitrex 0.5 g/u) of 1.3% and a ΔCT (ø of varieties and chemicals, Bitrex 1.0 g/u) of 2.4%.
